Measurements published in patent publication US12492163B2, “9H-fluorene derivatives or their pharmaceutically acceptable salts” (priority 2020, dated 2025).

Legend:
[1] = target: horse plasma butyrylcholinesterase (eqBuChE) (Equus caballus (Horse), UniProt P81908); test: Ellman's test, inhibition of horse plasma butyrylcholinesterase; format: biochemical
Outline: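 Modified Ellman assay: compound preincubated 5 min with enzyme and DTNB in 0.1 M phosphate buffer pH 8.0 at 25° C (eqBuChE) or 36° C (hBuChE), then butyrylthiocholine added; absorbance change at 412 nm read after 5 min. Screening at 10 μM (eqBuChE) or 1 μM (hBuChE); IC50 by non-linear regression, triplicates.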

mGAT2 = mGAT2 (Mus musculus (Mouse), UniProt P31651); test: [3H]GABA uptake inhibition, mGAT2 in HEK293 cells; format: cell-based; details: inhibitor at 100 μM; remaining reuptake
mGAT2, sequence (P31651 whole entry): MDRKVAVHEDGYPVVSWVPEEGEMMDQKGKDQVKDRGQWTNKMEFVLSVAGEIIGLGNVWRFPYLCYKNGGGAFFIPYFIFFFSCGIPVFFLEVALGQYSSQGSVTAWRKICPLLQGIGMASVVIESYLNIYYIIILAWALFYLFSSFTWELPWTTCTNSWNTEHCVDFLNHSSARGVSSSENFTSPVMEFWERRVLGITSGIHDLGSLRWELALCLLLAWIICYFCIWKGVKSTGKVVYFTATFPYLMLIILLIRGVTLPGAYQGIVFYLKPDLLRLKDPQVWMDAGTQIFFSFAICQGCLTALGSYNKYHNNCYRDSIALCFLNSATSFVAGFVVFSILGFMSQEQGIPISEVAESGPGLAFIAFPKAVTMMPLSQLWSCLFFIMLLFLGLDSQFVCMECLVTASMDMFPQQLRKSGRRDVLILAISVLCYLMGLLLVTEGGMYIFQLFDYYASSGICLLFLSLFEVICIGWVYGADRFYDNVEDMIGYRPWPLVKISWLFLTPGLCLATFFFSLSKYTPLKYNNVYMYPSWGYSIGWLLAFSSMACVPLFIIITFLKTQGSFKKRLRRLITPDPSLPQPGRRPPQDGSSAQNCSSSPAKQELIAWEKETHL
Experimental: Exemplary compounds according to the invention were screened at the Ludwig-Maximilian University of Munich to determine the inhibitory ability towards four mouse GAT transporters (mGAT1-mGAT4). […] The biological material was stably transfected human embryonic kidney HEK293 cells, expressing genes to the appropriate transporters. The generated radioactivity was measured with a liquid scintillation counter. […] These determinations were made according to the procedure described in detail in A. Kragler, G. Höfner, K. T. Wanner, Novel parent structures for inhibitors of the murine GABA transporters mGAT3 and mGAT4, Eur. J. Pharmacol. 519 (2005) 43-47.

[2] = target: human recombinant beta-secretase (hBACE1) (Homo sapiens (Human), UniProt P56817); test: FRET assay, inhibition of human recombinant beta-secretase; format: biochemical; details: 50 μM inhibitor concentration; read-out: hBACE-1 % inh
human recombinant beta-secretase (hBACE1), sequence (P56817 46-501): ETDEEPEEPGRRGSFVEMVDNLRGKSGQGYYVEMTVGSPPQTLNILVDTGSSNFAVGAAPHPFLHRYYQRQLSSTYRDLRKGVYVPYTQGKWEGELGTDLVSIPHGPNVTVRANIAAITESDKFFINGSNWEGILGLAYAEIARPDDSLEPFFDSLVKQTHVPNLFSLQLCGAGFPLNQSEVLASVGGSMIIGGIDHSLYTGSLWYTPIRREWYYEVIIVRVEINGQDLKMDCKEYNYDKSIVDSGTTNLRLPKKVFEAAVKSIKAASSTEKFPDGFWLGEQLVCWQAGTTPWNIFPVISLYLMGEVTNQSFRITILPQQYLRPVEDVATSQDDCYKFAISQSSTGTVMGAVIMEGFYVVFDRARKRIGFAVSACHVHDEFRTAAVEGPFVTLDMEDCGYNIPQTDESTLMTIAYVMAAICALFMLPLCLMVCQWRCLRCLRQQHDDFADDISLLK
Outline: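 hBACE1 (added as 1 U/ml solution) cleaves a rhodamine/quencher peptide based on the Swedish APP mutation in 50 mM sodium acetate pH 4.5, 60 min at 25 °C, stopped with 2.5 M sodium acetate; fluorescence at 576 nm. % inhibition from 0–60 min signal change versus enzyme-only blanks; screened at 50 μM in triplicate; IC50 by non-linear regression.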

horse plasma butyrylcholinesterase (eqBuChE), sequence (P81908 whole entry): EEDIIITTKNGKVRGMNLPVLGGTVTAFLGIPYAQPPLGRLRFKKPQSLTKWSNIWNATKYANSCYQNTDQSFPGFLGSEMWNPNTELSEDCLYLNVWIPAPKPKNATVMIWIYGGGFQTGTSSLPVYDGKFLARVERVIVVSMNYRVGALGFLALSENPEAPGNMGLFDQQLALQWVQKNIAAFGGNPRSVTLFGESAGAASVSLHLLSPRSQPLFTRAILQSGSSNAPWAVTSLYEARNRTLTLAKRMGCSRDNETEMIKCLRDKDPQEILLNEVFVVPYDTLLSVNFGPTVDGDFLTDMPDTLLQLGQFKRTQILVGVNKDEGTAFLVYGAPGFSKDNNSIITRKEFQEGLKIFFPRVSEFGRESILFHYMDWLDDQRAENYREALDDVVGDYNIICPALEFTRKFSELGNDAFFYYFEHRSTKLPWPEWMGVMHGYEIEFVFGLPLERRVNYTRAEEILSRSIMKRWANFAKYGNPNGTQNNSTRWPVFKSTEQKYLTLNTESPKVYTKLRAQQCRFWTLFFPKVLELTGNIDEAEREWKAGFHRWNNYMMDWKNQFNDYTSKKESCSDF

O[C@H](CNCC1CC1)[C@H](Cc1ccccc1)NC1c2ccccc2-c2ccccc21 [JT-3, (2R,3S)-3-((9H-fluoren-9-yl)amino)-1-((cyclopropylmethyl)amino)-4-phenylbutan-2-ol] was tested, and the IC50 [1] was 313 nM, the “percentage of [3H]GABA reuptake retained, mGAT2” value (mGAT2) was 51% and the inhibition at 50 µM [2] was 61.3%.
